Km data for five compounds are collected here from paper PMC6374638, “Evolutionary Relationships Between the Laccase Genes of Polyporales: Orthology-Based Classification of Laccase Isozymes and Functional Insight From Trametes hirsuta” (Frontiers in Microbiology, 2019).

Where two headings read alike, the source gives them in different places.

The subject of assay [1] is T1, rLacC.
T1 construct: gene lacC
The settings on record: read-out: KM, μM / rLacC; 0.1 M citrate-phosphate pH 4.5, 24°C.

Assay [2] concerns T2, rLacC.
T2 construct: gene lacC; recombinant secreted laccase, obtained previously (Savinova et al., 2017)
Briefly: spectrophotometric oxidation assay, […] nm, non-linear fit. It is filed as biochemical, Trametes hirsuta. The settings on record: 0.1 M citrate-phosphate pH 4.5, 24°C.

Assay [3] deals with T2, rLacC. Described as above. The format is biochemical, Trametes hirsuta. The note with it: 0.1 M citrate-phosphate pH 4.5, 24°C. The source holds these as a separate data set.
The test system of assay [4] is T2, rLacC. The description is as above. The format is biochemical, Trametes hirsuta. The note with it: 0.1 M citrate-phosphate pH 4.5, 24°C. This is another data set of the same source.
The target of the next assay is T3, LacA (Trametes hirsuta, UniProt A0A0A7M685).
T3 construct: native major secreted laccase, purified previously (Savinova et al., 2017)
T3 sequence (A0A0A7M685 22-520): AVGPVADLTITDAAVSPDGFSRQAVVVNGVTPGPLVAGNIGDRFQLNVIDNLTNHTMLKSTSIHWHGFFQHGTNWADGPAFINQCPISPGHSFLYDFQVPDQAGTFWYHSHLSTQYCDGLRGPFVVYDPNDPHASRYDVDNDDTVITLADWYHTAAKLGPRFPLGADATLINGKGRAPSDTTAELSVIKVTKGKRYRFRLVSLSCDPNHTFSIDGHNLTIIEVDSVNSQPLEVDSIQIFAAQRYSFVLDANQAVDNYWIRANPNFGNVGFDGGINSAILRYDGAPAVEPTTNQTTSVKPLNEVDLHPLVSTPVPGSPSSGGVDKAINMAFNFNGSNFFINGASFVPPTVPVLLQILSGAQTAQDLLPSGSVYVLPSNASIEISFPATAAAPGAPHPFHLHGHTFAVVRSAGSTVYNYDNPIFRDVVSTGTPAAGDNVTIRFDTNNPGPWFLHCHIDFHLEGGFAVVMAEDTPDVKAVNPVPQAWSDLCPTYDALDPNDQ
Described as above. The format is biochemical. The settings on record: 0.1 M citrate-phosphate pH 4.5, 24°C; cited from earlier work.

Assay [5] deals with T2, rLacC. Described as above. The format is biochemical, Trametes hirsuta. The settings on record: 0.1 M citrate-phosphate pH 4.5, 24°C. The source holds these as a separate data set.

In the case of `COc1cc(/C=C/C(=O)O)ccc1O` [Ferulic acid], in the assay with rLacC [1], the Km was found to be 173 ± 38 µM.

In the case of `Oc1ccccc1O` [Catechol], the Km in the assay on rLacC [2] amounted to 16300 ± 1720 µM.

On to `COc1ccccc1O` [Guaiacol], for which, in the assay on rLacC [3], the Km worked out at 15700 ± 337 µM.

Consider `COc1cccc(OC)c1O` [2,6-DMP, 2,6-dimethoxyphenol], for which the Km in the assay with rLacC [4] came to 589 ± 75 µM.

As to `COc1cc(/C=C/C(=O)O)cc(OC)c1O` [Synapic acid], the Km at LacA was 17 ± 2 µM; in the assay on rLacC [5], 71 ± 14 µM.
